Laboratory results published in patent EP0341661A2, “Peptide-drug compositions containing alpha-aminoboronic acid derivatives” (THE DU PONT MERCK PHARMACEUTICAL COMPANY, priority 1988, dated 1989).

What was measured:
aminopeptidases [1] = assay: In situ nasal perfusion: degradation of 100 µM leucine enkephalin in the nasal perfusate; type: in vivo, Sprague-Dawley rats; conditions: for order of inhibition of degradation: 0.1 µM boroleucine, 10 µM bestatin, 100 µM puromycin; for % Leucine Enkephalin Remaining: 0.1 µM inhibitor
Description: In order to evaluate the effectiveness of the α-aminoboronic acid derivative inhibitors of this invention, an animal model was used (according to A. Hussain, J. Furaj, A. Yukihiko and J. E. Truelove, Biochem. Biophys. Res. Com. 133, 923, 1985) to assess the degradation of proteins and peptides in situ and in vivo in situ in the nasal cavity of rats. The method involved the use of Sprague-Dawley rats weighing approximately 300 grams. Each rat was anesthetized with sodium pentobarbitol (50 mg/kg). An incision was made in the neck and the trachea was canulated with PE 240 tubing. For the in situ studies, a second tube, which served to introduce the perfusing solution, was inserted through the esophagus to the posterior part of the nasal cavity. The nasopalatine was closed with an adhesive to prevent drainage of the perfusing solution from the nasal to the oral cavity. For the in vivo in situ studies, the esophagus was canulated using PE 240 tubing closed at one end. The closed end was pushed to the posterior end of the nasal passage and then tied in place. The nasopalatine was closed with an adhesive to prevent drainage of the perfusing solution from the nasal to the oral cavity. The rats were dosed in one nostril with 50 µl of peptide solution in two forms; the control solution had no inhibitor added, the test solution had inhibitor added at concentrations specified in the examples shown below. The dosing solution was 0.1 M phosphate buffer (pH 7.4). At certain time intervals (one rat/time interval), the drug was washed from the nose via the other nostril with 10 ml of 0.1 M phosphate buffer (pH 3.8) using a peristaltic pump. The nasal washing was then placed in a 10 ml volumetric flask and adjusted to 10 ml with the same buffer and analyzed for the peptide by HPLC. The analysis of leucine enkephalin and its major metabolite involved taking aliquots of samples, diluting them with 200 µl of 0.1 M citric acid (pH 2.3) to quench hydrolysis and subjecting the samples to analysis (for in vivo in situ studies, the washings were injected as they were obtained). High Pressure Liquid Chromatography (HPLC) was run on a 4.6 x 250 mm C₈ column. The mobile phase consisted of 0.1 M NaH₂PO₄-H₃PO₄-acetonitrile (916 : 5 : 275) and was delivered at a flow rate of 1.7 ml/min. Detection was by UV at 210 nm. Retention times for leucine enkephalin and its major degradation product, Des-Tyr-leucine enkephalin were 7.3 and 4.8 min., respectively. Data were calculated as % of leucine enkephalin remaining in the nasal perfusate as a function of time, counting the concentration at zero time as 100%. In this example, a 10 ml solution of 0.1 M phosphate buffer solution (pH 7.4) containing 100 µM leucine enkephalin (the peptide) in the absence or presence of 0.1 µM 3-methyl-1(4,4,5,5-tetramethyl-1,3,2-dioxaborolane-2-yl)-1-butamine, trifluoroacetic acid salt (boroleucine) as the inhibitor was perfused nasally in rats as described above. A 10 ml portion of the peptide solution was placed in a water-jacketed container, maintained at 37°C and circulated through the nasal cavity of rats using a peristaltic pump. The perfusing solution was passed through the nasal cavity, out the nostrils, through a funnel, and returned to the water-jacketed container. The perfusate was analyzed by the ANALYTICAL METHOD described above.

aminopeptidases [2] = assay: as above; type: in vivo, Sprague-Dawley rats; conditions: 10 µM inhibitor
[3] = in vivo, cited from earlier work

## CC(C)C[C@H](NC(=O)[C@@H](O)[C@H](N)Cc1ccccc1)C(=O)O [Bestatin, bestatin, reference compound]
Aminopeptidases [1]
  order of inhibition of degradation: boroleucine> bestatin> puromycin
Aminopeptidases [1]; 10 µM inhibitor, 0 min
  % of leucine enkephalin remaining in the nasal perfusate: 100.0±0.0%
Aminopeptidases [1]; 10 µM inhibitor, 10 min
  % of leucine enkephalin remaining in the nasal perfusate: 94.7±1.7%
Aminopeptidases [1]; 10 µM inhibitor, 30 min
  % of leucine enkephalin remaining in the nasal perfusate: 86.6±3.8%
Aminopeptidases [1]; 10 µM inhibitor, 45 min
  % of leucine enkephalin remaining in the nasal perfusate: 79.0±5.3%
Aminopeptidases [1]; 10 µM inhibitor, 90 min
  % of leucine enkephalin remaining in the nasal perfusate: 57.3±8.8%
Aminopeptidases [2]; 5 min
  % of leucine enkephalin remaining in the nasal perfusate: 97.3±1.6%
Aminopeptidases [2]; 20 min
  % of leucine enkephalin remaining in the nasal perfusate: 90.0±3.3%
Aminopeptidases [2]; 60 min
  % of leucine enkephalin remaining in the nasal perfusate: 72.3±6.7%

## CC(C)C(N)B1OC(C)(C)C(C)(C)O1.O=C(O)C(F)(F)F (stereo not drawn) [borovaline, 4,4,5,5-tetramethyl-α-(1-methylethyl)-1,3,2-dioxaborolane-2-methanamine, trifluoroacetic acid salt]
Aminopeptidases [1]; 0 min
  % Leucine Enkephalin Remaining: 100.0±0.0%
Aminopeptidases [1]; 5 min
  % Leucine Enkephalin Remaining: 96.3±1.9%
Aminopeptidases [1]; 10 min
  % Leucine Enkephalin Remaining: 95.7±1.5%
Aminopeptidases [1]; 20 min
  % Leucine Enkephalin Remaining: 94.8±1.4%
Aminopeptidases [1]; 30 min
  % Leucine Enkephalin Remaining: 91.6±1.6%
Aminopeptidases [1]; 45 min
  % Leucine Enkephalin Remaining: 89.1±2.5%
Aminopeptidases [1]; 60 min
  % Leucine Enkephalin Remaining: 86.2±2.5%
Aminopeptidases [1]; 90 min
  % Leucine Enkephalin Remaining: 78.3±4.3%
Aminopeptidases [1]; 0.1 µM of each inhibitor
  comparison of the inhibitory effect of equimolar concentrations: superior to boroalanine

## CC(N)B1OC(C)(C)C(C)(C)O1.O=C(O)C(F)(F)F (stereo not drawn) [boroalanine, α,4,4,5,5-pentamethyl-1,3,2-dioxaborolane-2-methanamine, trifluoroacetic acid salt]
Aminopeptidases [1]; 0 min
  % Leucine Enkephalin Remaining: 100.0± 0.0%
Aminopeptidases [1]; 5 min
  % Leucine Enkephalin Remaining: 94.7± 3.0%
Aminopeptidases [1]; 10 min
  % Leucine Enkephalin Remaining: 91.9± 2.1%
Aminopeptidases [1]; 20 min
  % Leucine Enkephalin Remaining: 88.5± 2.2%
Aminopeptidases [1]; 30 min
  % Leucine Enkephalin Remaining: 84.1± 3.1%
Aminopeptidases [1]; 45 min
  % Leucine Enkephalin Remaining: 77.5± 4.4%
Aminopeptidases [1]; 60 min
  % Leucine Enkephalin Remaining: 69.9± 6.7%
Aminopeptidases [1]; 90 min
  % Leucine Enkephalin Remaining: 56.4±12.1%

## COc1ccc(C[C@H](N)C(=O)N[C@H]2[C@@H](O)[C@H](n3cnc4c(N(C)C)ncnc43)O[C@@H]2CO)cc1 [Puromycin, puromycin, reference compound]
Aminopeptidases [1]
  order of inhibition of degradation: boroleucine> bestatin> puromycin
Aminopeptidases [1]; 100 µM inhibitor, 0 min
  % of leucine enkephalin remaining in the nasal perfusate: 100.0±0.0%
Aminopeptidases [1]; 100 µM inhibitor, 5 min
  % of leucine enkephalin remaining in the nasal perfusate: 96.7±2.4%
Aminopeptidases [1]; 100 µM inhibitor, 10 min
  % of leucine enkephalin remaining in the nasal perfusate: 91.3±3.4%
Aminopeptidases [1]; 100 µM inhibitor, 20 min
  % of leucine enkephalin remaining in the nasal perfusate: 82.4±4.1%
Aminopeptidases [1]; 100 µM inhibitor, 30 min
  % of leucine enkephalin remaining in the nasal perfusate: 78.5±3.2%
Aminopeptidases [1]; 100 µM inhibitor, 45 min
  % of leucine enkephalin remaining in the nasal perfusate: 73.6±2.2%
Aminopeptidases [1]; 100 µM inhibitor, 60 min
  % of leucine enkephalin remaining in the nasal perfusate: 63.5±5.6%
Aminopeptidases [1]; 100 µM inhibitor, 90 min
  % of leucine enkephalin remaining in the nasal perfusate: 48.9±6.7%

## leuprolide
[3]; po
  improvement of bioavailability over the oral route (factor): 112 times
[3]; sc
  drug absorbed systemically: over 65%
